Earlier results on one molecule are cited in patent US20090304794A1, “CONTROLLED RELEASE FORMULATIONS OF PRAMIPEXOLE” (Supernus Pharmaceuticals, Inc., priority 2008, published 2009).

Where two headings read alike, the source gives them in different places.

As for `CCCN[C@H]1CCc2nc(N)sc2C1` [pramipexole], the terminal elimination half-life entry by setting is: (elderly volunteers) “about 12 hours”; (healthy volunteers) “about 8 hours”. The “lower clearance rate in females than males” value (females versus males) is 30%. The “absolute bioavailability (BA)” value (in vivo) is reported as “greater than 90%”.
